Laboratory results reported in ChEMBL document CHEMBL1201862, “PubChem BioAssay data set” (2004).
Values joined by “and” are separate entries in the source; they are usually repeats but may differ in a detail not shown here. Equal entries are not always repeated.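 96-well plates; 48 h exposure; 5 concentrations. Endpoints by linear interpolation between flanking doses. Not reached: highest tested concentration assigned. At the GI50, growth is halved.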 Active and inactive are the calls of the source. Cut-off read from the data, not from the text of the source: active = GI50 up to about 1.1 µM and inactive = higher.

What was measured:
Assay in all cases: NCI tumour cell line growth inhibition, 48 h
[1] = tested on: TK-10
[2] = tested on: NCI-H522
[3] = tested on: CCRF-CEM
[4] = tested on: OVCAR-3
[5] = tested on: HCC 2998
[6] = tested on: SF-539
[7] = tested on: ACHN
[8] = tested on: RXF 393
[9] = tested on: SK-MEL-2
[10] = tested on: KM12
[11] = tested on: OVCAR-5
[12] = tested on: A549
[13] = tested on: SNB-19
[14] = tested on: UO-31
[15] = tested on: SK-MEL-5
[16] = tested on: SF-295
[17] = tested on: IGROV-1
[18] = tested on: UACC-62
[19] = tested on: NCI-H23
[20] = tested on: HCT-116

| SMILES | GI50 [1] | GI50 [2] | GI50 [3] | GI50 [4] | GI50 [5] | GI50 [6] | GI50 [7] | GI50 [8] | GI50 [9] | GI50 [10] | GI50 [11] | GI50 [12] | GI50 [13] | GI50 [14] | GI50 [15] | GI50 [16] | GI50 [17] | GI50 [18] | GI50 [19] | GI50 [20] |
| --- | --- | --- | --- | --- | --- | --- | --- | --- | --- | --- | --- | --- | --- | --- | --- | --- | --- | --- | --- | --- |
| OC(CBr)C(O)C(O)C(O)CBr (centres undefined) | > 100 µM (inactive) | > 67.1 µM (inactive) and > 48.6 µM (inactive) | 14.3 µM (inactive) and > 21.6 µM (inactive) | > 55.1 µM (inactive) | > 100 µM (inactive) and > 72.8 µM (inactive) | 46.7 µM (inactive) and 49.8 µM (inactive) | 8.09 µM (inactive) | > 100 µM (inactive) and > 88.9 µM (inactive) | > 100 µM (inactive) and > 66.2 µM (inactive) | > 100 µM (inactive) and > 60 µM (inactive) | > 57 µM (inactive) | 19 µM (inactive) and 36.9 µM (inactive) |  |  |  |  |  |  |  |  |
| [O-][S+]1c2ccccc2N=C(c2ccc(Cl)cc2)CC1c1cccs1 (centres undefined) | 39.3 µM (inactive) | 27.4 µM (inactive) | 17.3 µM (inactive) | 1.68 µM (inactive) | 16.3 µM (inactive) | 16.7 µM (inactive) | 28.2 µM (inactive) | 14.4 µM (inactive) |  | 14.7 µM (inactive) | 16.7 µM (inactive) | 32.4 µM (inactive) | 21.1 µM (inactive) | 17.7 µM (inactive) | 19 µM (inactive) | 16.6 µM (inactive) | 14.8 µM (inactive) | 15.7 µM (inactive) | 23.8 µM (inactive) | 10.9 µM (inactive) |
| N#Cc1ccsc1Nc1ccccc1[N+](=O)[O-] |  | 63.7 µM (inactive) | > 100 µM (inactive) | > 100 µM (inactive) | > 100 µM (inactive) | > 100 µM (inactive) | > 100 µM (inactive) | 86.9 µM (inactive) |  | > 100 µM (inactive) | > 100 µM (inactive) | > 100 µM (inactive) | 52.2 µM (inactive) | > 100 µM (inactive) |  | 64.1 µM (inactive) | > 100 µM (inactive) | > 100 µM (inactive) | > 100 µM (inactive) | > 100 µM (inactive) |
| CCC(CC)C(=O)OC[n+]1ccc(-c2c(COC(=O)NC(C)C)c(COC(=O)NC(C)C)c3n2CCC3)cc1 |  | > 100 µM (inactive) | > 100 µM (inactive) | > 100 µM (inactive) | > 100 µM (inactive) | > 100 µM (inactive) |  | > 100 µM (inactive) |  |  |  | > 100 µM (inactive) | > 100 µM (inactive) | > 100 µM (inactive) | > 100 µM (inactive) | > 100 µM (inactive) | > 100 µM (inactive) |  | > 100 µM (inactive) |  |
| O=C(C/C=C/c1ccccc1)c1ccccc1 | 23.2 µM (inactive) | 16.9 µM (inactive) | 22.2 µM (inactive) | 41.6 µM (inactive) | 18.3 µM (inactive) | 25 µM (inactive) | 16.6 µM (inactive) | 15.8 µM (inactive) |  | 11.1 µM (inactive) | 28.6 µM (inactive) | 10.8 µM (inactive) |  | 14.1 µM (inactive) | 19.5 µM (inactive) | 44.4 µM (inactive) | 23.5 µM (inactive) | 12.6 µM (inactive) | 15.1 µM (inactive) | 17.4 µM (inactive) |
| C=CCSc1nnc2cc(CN3CCCC3)c(-c3ccc(Cl)cc3)nn12 | 20.7 µM (inactive) | 18.9 µM (inactive) | 45.1 µM (inactive) | 17.1 µM (inactive) |  | 18.6 µM (inactive) | 15.7 µM (inactive) | 15.1 µM (inactive) | 19.2 µM (inactive) | 24.8 µM (inactive) | 18.3 µM (inactive) | 28.1 µM (inactive) | 24.6 µM (inactive) | 16 µM (inactive) | 15.5 µM (inactive) | 22.2 µM (inactive) | 20.7 µM (inactive) | 14.4 µM (inactive) | 23.7 µM (inactive) | 14.5 µM (inactive) |
| O=C(Nc1ccc(/N=N/c2ccccc2)cc1)Sc1ccccc1C(=O)O | > 100 µM (inactive) | > 100 µM (inactive) | > 10 µM (inactive) | > 100 µM (inactive) | > 100 µM (inactive) | > 100 µM (inactive) | > 100 µM (inactive) | 71.3 µM (inactive) | > 100 µM (inactive) | > 100 µM (inactive) | > 100 µM (inactive) | > 100 µM (inactive) | > 100 µM (inactive) | > 100 µM (inactive) |  | > 100 µM (inactive) | 0.7 µM (active) | > 100 µM (inactive) | > 100 µM (inactive) | 57.1 µM (inactive) |
| O=S(OC12CC3CC(CC(C3)C1)C2)c1cc(Cl)cc(Cl)c1OCc1ccccc1 (centres undefined) | > 100 µM (inactive) | 19 µM (inactive) | > 100 µM (inactive) | > 100 µM (inactive) | > 100 µM (inactive) | > 100 µM (inactive) | > 100 µM (inactive) | > 100 µM (inactive) | > 100 µM (inactive) | > 100 µM (inactive) | > 100 µM (inactive) |  | > 100 µM (inactive) | > 100 µM (inactive) |  |  |  | > 100 µM (inactive) | > 100 µM (inactive) | > 100 µM (inactive) |
| Cc1cccc(C)c1NC(=O)CCC(=O)NNC(=O)c1cc(O)c2ccccc2c1 | 70.1 µM (inactive) | 26.3 µM (inactive) | 12.2 µM (inactive) | 24.8 µM (inactive) | 51.9 µM (inactive) | 27.9 µM (inactive) | 37.2 µM (inactive) | 5.35 µM (inactive) |  | 99.1 µM (inactive) | 32.7 µM (inactive) | 64.7 µM (inactive) | 23.9 µM (inactive) | 32.1 µM (inactive) | 32.3 µM (inactive) | 24 µM (inactive) | 30.4 µM (inactive) | 25.6 µM (inactive) | 26.3 µM (inactive) | 31.9 µM (inactive) |
| CC1=C(C(=O)Nc2ccc(Cl)c(Cl)c2)C(c2ccc([N+](=O)[O-])cc2)C(C(=O)Nc2ccc(Cl)c(Cl)c2)=C(C)N1 | 7.18 µM (inactive) | 2.55 µM (inactive) |  | 1.66 µM (inactive) | 2 µM (inactive) | 3.13 µM (inactive) | 3.09 µM (inactive) | 1.78 µM (inactive) | 2.1 µM (inactive) | 1.82 µM (inactive) | 3.23 µM (inactive) | 2.82 µM (inactive) | 4.65 µM (inactive) | 2.69 µM (inactive) | 1.67 µM (inactive) | 2.7 µM (inactive) | 3.2 µM (inactive) | 1.7 µM (inactive) | 2.21 µM (inactive) | 1.55 µM (inactive) |
| O=C(CCN1CCN2c3ccccc3CCC2C1)c1ccc(F)cc1 (centres undefined) | 29.6 µM (inactive) | 15.4 µM (inactive) | 36.6 µM (inactive) | 32.1 µM (inactive) |  | 20.8 µM (inactive) | 19 µM (inactive) | 20.6 µM (inactive) | 23 µM (inactive) | 41.1 µM (inactive) | 23.1 µM (inactive) | > 100 µM (inactive) | 23.2 µM (inactive) | 17.6 µM (inactive) | 22.5 µM (inactive) | > 100 µM (inactive) | 22.4 µM (inactive) | 31 µM (inactive) | 36.1 µM (inactive) | 37.5 µM (inactive) |
| Cc1nn(C(=O)c2ccccc2O)c2c1C(c1ccccc1O)SC(=N)N2 (centres undefined) | 1.69 µM (inactive) | 3.47 µM (inactive) | 3.1 µM (inactive) | 2.54 µM (inactive) | > 10 µM (inactive) | 0.421 µM (active) | 3.44 µM (inactive) | > 10 µM (inactive) | 4.65 µM (inactive) | 4.65 µM (inactive) | 6.32 µM (inactive) | 8.04 µM (inactive) |  |  | 2.46 µM (inactive) | 7.53 µM (inactive) | 1.01 µM (active) | 3.08 µM (inactive) | 2.94 µM (inactive) | 4.12 µM (inactive) |
| C/C(=N/NC(=O)CC(=O)N(C(=O)c1ccccc1Cl)c1ccc(C)cc1)c1cc2ccccc2oc1=O | 95.5 µM (inactive) | > 100 µM (inactive) | > 100 µM (inactive) | > 100 µM (inactive) | > 100 µM (inactive) | > 100 µM (inactive) | > 100 µM (inactive) | > 100 µM (inactive) |  | > 100 µM (inactive) | > 100 µM (inactive) | > 100 µM (inactive) | > 100 µM (inactive) | > 100 µM (inactive) | 65.3 µM (inactive) | > 100 µM (inactive) | > 100 µM (inactive) | > 100 µM (inactive) | 45.5 µM (inactive) | > 100 µM (inactive) |
| C=C(Br)C(C)(Cl)CCC(Br)C(C)(C)Cl (centres undefined) | > 100 µM (inactive) | 40.5 µM (inactive) | 20.6 µM (inactive) | 20 µM (inactive) | > 100 µM (inactive) | 74.8 µM (inactive) | 29.6 µM (inactive) | 24.7 µM (inactive) |  | 34.2 µM (inactive) | 56.4 µM (inactive) | 36.1 µM (inactive) | > 100 µM (inactive) | > 100 µM (inactive) | 34.2 µM (inactive) | 34.8 µM (inactive) | 77.3 µM (inactive) | 86.9 µM (inactive) | 41.9 µM (inactive) | 34.9 µM (inactive) |
| O=c1c2c3c(sc2nc2n1N=C(c1ccc([N+](=O)[O-])cc1)CS2)CCCC3 | 42.2 µM (inactive) | > 100 µM (inactive) | > 100 µM (inactive) | > 100 µM (inactive) | > 100 µM (inactive) | > 100 µM (inactive) | > 100 µM (inactive) | > 100 µM (inactive) |  | > 100 µM (inactive) | > 100 µM (inactive) | > 100 µM (inactive) |  | > 100 µM (inactive) | > 100 µM (inactive) | > 100 µM (inactive) | > 100 µM (inactive) | > 100 µM (inactive) | > 100 µM (inactive) | > 100 µM (inactive) |
